Measured values published in US9365522B2, “Pyrazole amide derivative” (AMGEN INC., priority 2015, dated 2016).

Target: T1, ligand binding domain of human ROR gamma (Homo sapiens, UniProt P51449)
T1 construct: NM_001001523; expressed in transfected cells; host or cells: HEK293T
T1 sequence (P51449 247-497 isoform P51449-2): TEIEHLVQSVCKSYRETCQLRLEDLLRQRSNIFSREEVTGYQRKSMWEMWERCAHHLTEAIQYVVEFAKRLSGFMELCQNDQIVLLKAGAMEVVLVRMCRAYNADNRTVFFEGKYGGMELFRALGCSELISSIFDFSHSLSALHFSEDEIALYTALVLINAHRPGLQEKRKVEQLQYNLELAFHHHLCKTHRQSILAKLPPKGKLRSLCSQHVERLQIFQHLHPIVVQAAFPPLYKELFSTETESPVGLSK
Assay: ROR gamma reporter gene assay (GAL4-RORγ LBD luciferase, Dual-Glo)
Format: cell-based
Settings: HEK293T cells transfected with pM-ROR gamma, 8 concentrations 3.5 nM to 10.5 μM, 24 h incubation; read-out: result (pIC50, inhibition of RORγ transcriptional activity) (converted)
In short: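 First, HEK293T cells are transfected with the GAL4–RORγ LBD construct, a 5×UAS luciferase reporter and a constitutive renilla control. Next, test compounds are added over eight concentrations (3.5 nM to 10.5 μM). After 24 h at 37 °C, Dual-Glo luminescence is measured and pIC50 fitted.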

Compound | IC50 [pM]
O=C1CC[C@H](CN(CC(=O)c2c(Cl)cncc2Cl)C(=O)c2cnn([C@H]3CC[C@H](C(=O)O)CC3)c2C(F)(F)F)N1 [Example 158, trans-4-(4-((2-(3,5-dichloropyridin-4-yl)-2-oxoethyl)-(((2R)-5-oxopyrrolidin-2-yl)methyl)carbamoyl)-5-(trifluoromethyl)pyrazol-1-yl)cyclohexane-1-carboxylic acid] | > 1e+07
Cc1nccnc1C(O)CN(C(=O)c1cnn([C@H]2CC[C@](C)(C(=O)O)CC2)c1C(F)(F)F)[C@H]1C[C@@H]2[C@H](C1)C2(C)C (stereo partly drawn) [Example 410, trans-4-(4-(((1R,3r,5S)-6,6-dimethylbicyclo[3.1.0]hexan-3-yl)(2-hydroxy-2-(3-methylpyrazin-2-yl)ethyl)carbamoyl)-5-(trifluoromethyl)-1H-pyrazol-1-yl)-1-methylcyclohexanecarboxylic acid] | 2.14e+06
C[C@]1(C(=O)O)CC[C@H](n2ncc(C(=O)N(CC(=O)c3c(Cl)cncc3Cl)Cc3ccc(F)cc3)c2C(F)(F)F)CC1 [Example 77, trans-4-(4-((2-(3,5-dichloropyridin-4-yl)-2-oxoethyl)(4-fluorobenzyl)carbamoyl)-5-(trifluoromethyl)-1H-pyrazol-1-yl)-1-methylcylohexanecarboxylic acid] | 33900
CC1(C)CCC(N(CC(=O)c2c(Cl)cccc2Cl)C(=O)c2cnn([C@H]3CC[C@](C)(C(=O)O)CC3)c2C(F)(F)F)CC1 [Example 283, trans-4-(4-((2-(2,6-dichlorophenyl)-2-oxoethyl)-(4,4-dimethylcyclohexyl)carbamoyl)-5-(trifluoromethyl)pyrazol-1-yl)-1-methylcyclohexane-1-carboxylic acid] | 9120
O=C(c1cnn([C@H]2CC[C@H](C(=O)O)CC2)c1C(F)(F)F)N(Cc1ccc(F)cc1)CC(F)(F)c1c(Cl)cccc1Cl [Example 96, trans-4-(4-((2-(2,6-dichlorophenyl)-2,2-difluoroethyl)-((4-fluorophenyl)methyl)carbamoyl)-5-(trifluoromethyl)pyrazol-1-yl)cyclohexane-1-carboxylic acid] | 28800
CC1(C)[C@@H]2C[C@H](N(CC(=O)c3c(Cl)cccc3Cl)C(=O)c3cnn([C@H]4CC[C@](C)(C(=O)O)CC4)c3C3(F)CC3)C[C@@H]21 [Example 404, trans-4-(4-((2-(2,6-dichlorophenyl)-2-oxoethyl)((1R,3r,5S)-6,6-dimethylbicyclo[3.1.0]hexan-3-yl)carbamoyl)-5-(1-fluorocyclopropyl)-1H-pyrazol-1-yl)-1-methylcyclohexanecarboxylic acid] | 22400
O=C(CN(CC1CC1)C(=O)c1cnn([C@H]2CC[C@H](C(=O)O)CC2)c1C(F)(F)F)c1c(Cl)cncc1Cl [Example 72, trans-4-(4-((cyclopropylmethyl)(2-(3,5-dichloropyridin-4-yl)-2-oxoethyl)carbamoyl)-5-(trifluoromethyl)-1H-pyrazol-1-yl)cyclohexanecarboxylic acid] | 1.32e+06
O=C(CN(CC1CCCCN1)C(=O)c1cnn([C@H]2CC[C@H](C(=O)O)CC2)c1C(F)(F)F)c1c(Cl)cncc1Cl (stereo partly drawn) [Example 121, trans-4-(4-((2-(3,5-dichloropyridin-4-yl)-2-oxoethyl)-(piperidin-2-ylmethyl)carbamoyl)-5-(trifluoromethyl)pyrazol-1-yl)cyclohexane-1-carboxylic acid] | > 1e+07
CC(C)(C)[C@@H]1C[C@H]1N(CC(=O)c1c(Cl)cncc1Cl)C(=O)c1cnn([C@H]2CC[C@](C)(C(=O)O)CC2)c1C(F)(F)F [Example 331, trans-4-(4-(((1R,2S)-2-tert-butylcyclopropyl)-(2-(3,5-dichloropyridin-4-yl)-2-oxoethyl)carbamoyl)-5-(trifluoromethyl)pyrazol-1-yl)-1-methylcyclohexane-1-carboxylic acid] | 102000
O=C(CN(Cc1cc(F)cc(F)c1)C(=O)c1cnn([C@H]2CC[C@H](O)CC2)c1C(F)(F)F)c1c(Cl)cncc1Cl [Example 85, N-(2-(3,5-dichloropyridin-4-yl)-2-oxoethyl)-N-(3,5-difluorobenzyl)-1-(trans-4-hydroxycyclohexyl)-5-(trifluoromethyl)-1H-pyrazole-4-carboxamide] | 1.48e+06
CC1(C)[C@@H]2C[C@H](N(CC(=O)c3c(Cl)cccc3Cl)C(=O)c3cnn([C@H]4CC[C@](C)(C(=O)O)CC4)c3C3CC3)C[C@@H]21 [Example 385, trans-4-(5-cyclopropyl-4-((2-(2,6-dichlorophenyl)-2-oxoethyl)((1R,3r,5S)-6,6-dimethylbicyclo[3.1.0]hexan-3-yl)carbamoyl)-1H-pyrazol-1-yl)-1-methylcyclohexanecarboxylic acid] | 18600
CN1CCC(CN(CC(=O)c2c(Cl)cncc2Cl)C(=O)c2cnn([C@H]3CC[C@H](C(=O)O)CC3)c2C(F)(F)F)CC1 [Example 154, trans-4-(4-((2-(3,5-dichloropyridin-4-yl)-2-oxoethyl)-((1-methylpiperidin-4-yl)methyl)carbamoyl)-5-(trifluoromethyl)pyrazol-1-yl)cyclohexane-1-carboxylic acid] | > 1e+07
COc1cccc(Cl)c1C(=O)CN(C(=O)c1cnn([C@H]2CC[C@](C)(C(=O)O)CC2)c1C(F)(F)F)[C@H]1C[C@@H]2[C@H](C1)C2(C)C [Example 232, trans-4-(4-((2-(2-chloro-6-methoxyphenyl)-2-oxoethyl)-((1R,3r,5S)-6,6-dimethyl-3-bicyclo(3.1.0)hexanyl)carbamoyl)-5-(trifluoromethyl)pyrazol-1-yl)-1-methylcyclohexane-1-carboxylic acid] | 17000
O=C(CN(Cc1cc(F)cc(F)c1)C(=O)c1cnn([C@H]2CC[C@H](C(=O)O)CC2)c1C(F)(F)F)c1c(Cl)cc(Cl)cc1Cl [Example 56, trans-4-(4-((3,5-difluorobenzyl)(2-oxo-2-(2,4,6-trichlorophenyl)ethyl)carbamoyl)-5-(trifluoromethyl)-1H-pyrazol-1-yl)cyclohexanecarboxylic acid] | 15500
CC(C)(C)CN(CC(=O)c1c(Cl)cccc1Cl)C(=O)c1cnn([C@H]2CC[C@](C)(C(=O)O)CC2)c1Cl [Example 358, trans-4-(5-chloro-4-((2-(2,6-dichlorophenyl)-2-oxoethyl)-(2,2-dimethylpropyl)carbamoyl)pyrazol-1-yl)-1-methylcyclohexane-1-carboxylic acid] | 61700
O=C(CN(Cc1nc(Cl)cs1)C(=O)c1cnn([C@H]2CC[C@H](C(=O)O)CC2)c1C(F)(F)F)c1c(Cl)cncc1Cl [Example 165, trans-4-(4-((4-chloro-1,3-thiazol-2-yl)methyl-(2-(3,5-dichloropyridin-4-yl)-2-oxoethyl)carbamoyl)-5-(trifluoromethyl)pyrazol-1-yl)cyclohexane-1-carboxylic acid] | 1.17e+06
CC(C)(C)OCCN(CC(=O)c1c(Cl)cncc1Cl)C(=O)c1cnn([C@H]2CC[C@](C)(C(=O)O)CC2)c1C(F)(F)F [Example 318, trans-4-(4-((2-(3,5-dichloropyridin-4-yl)-2-oxoethyl)-(2-((2-methylpropan-2-yl)oxy)ethyl)carbamoyl)-5-(trifluoromethyl)pyrazol-1-yl)-1-methylcyclohexane-1-carboxylic acid] | 20000
CC1(C)CC[C@@H](N(CC(=O)c2c(Cl)cncc2Cl)C(=O)c2cnn([C@H]3CC[C@H](C(=O)O)CC3)c2C(F)(F)F)C1 [Example 223, trans-4-(4-((2-(3,5-dichloropyridin-4-yl)-2-oxoethyl)-((1R)-3,3-dimethylcyclopentyl)carbamoyl)-5-(trifluoromethyl)pyrazol-1-yl)cyclohexane-1-carboxylic acid] | 50100
C[C@]1(C(=O)O)CC[C@H](n2ncc(C(=O)N(CC(=O)c3c(Cl)cc(Cl)cc3Cl)CC3(F)CCCC3)c2C(F)(F)F)CC1 [Example 225, trans-4-(4-((1-fluorocyclopentyl)methyl-(2-oxo-2-(2,4,6-trichlorophenyl)ethyl)carbamoyl)-5-(trifluoromethyl)pyrazol-1-yl)-1-methylcyclohexane-1-carboxylic acid] | 2950
CC1(C)CC(CN(CC(=O)c2c(Cl)cccc2C(F)(F)F)C(=O)c2cnn(C34CCC(C(=O)O)(CC3)CC4)c2C(F)(F)F)C1 [Example 258, 4-(4-((2-(2-chloro-6-(trifluoromethyl)phenyl)-2-oxoethyl)-((3,3-dimethylcyclobutyl)methyl)carbamoyl)-5-(trifluoromethyl)pyrazol-1-yl)bicyclo[2.2.2]octane-1-carboxylic acid] | 6610
CC1(C)CCC(N(CC(=O)c2c(Cl)cc(F)cc2Cl)C(=O)c2cnn(C34CCC(C(=O)O)(CC3)CC4)c2C(F)F)CC1 [Example 273, 4-(4-((2-(2,6-dichloro-4-fluorophenyl)-2-oxoethyl)-(4,4-dimethylcyclohexyl)carbamoyl)-5-(difluoromethyl)pyrazol-1-yl)bicyclo[2.2.2]octane-1-carboxylic acid] | 14100
C[C@]1(C(=O)O)CC[C@H](n2ncc(C(=O)N(Cc3cc(F)cc(F)c3)C[C@H](F)c3c(Cl)cccc3Cl)c2C(F)(F)F)CC1 [Example 138, trans-4-(4-(((2R)-2-(2,6-dichlorophenyl)-2-fluoroethyl)-((3,5-difluorophenyl)methyl)carbamoyl)-5-(trifluoromethyl)pyrazol-1-yl)-1-methylcyclohexane-1-carboxylic acid] | 7240
